# “Also recorded” adds a separate entry of the source.
# System: human leutecyte strain cell (RPMI-8402)
# Assay: Extinction effect of compatible administration of l-OHP and a compatible agent on tumor cells (compatible efficiency OE)
# Type: cell-based
# Settings: for Compatible Effects of l-OHP and Compatible Agent, Simultaneous Administration: both added day 1
# Experimental: In the evaluation of the extinction effect of the tumor cells of the respective combinations, a pure extinction effect produced by the compatible administration of the compatible agent and the l-OHP is calculated by subtracting an extinction effect of a control (no carcinostatic substance is employed).
# The compatibly administration effect is calculated by employing an Equation (1) described later. When the value (%) calculated by this Equation is between 85 and 115%, the compatible administration effect is evaluated to be an additive effect. When the value is below 85%, it is evaluated to be below the additive effect. When the value is over 115%, it is evaluated to be a synergistic effect, ±15% is a reliability limit or a measurement error.
# A target tumor cell was a human leutecyte strain cell (RPMI-8402 of Gibuko K.K.). To these cells was added blood serum of a cow embryo (15%, Gibuko K.K.) to prepare a cell floating liquid of which the number of the cells was 10^6/ml in a cultivation bottle (tradename; Sumiron of Sumitomo Bakelite o., Ltd.) having a volume of 6 ml. A plenty of the cultivation bottles having the cell floating liquid therein were prepared, and the following experiments were conducted while selecting one kind of a compatible agent among cisplatin, 5-FU, irinotecane, adriamycin, etoposide, mitomycin, mitoxantrone, bleomycin, vincristin and vindecin. The time schedules of the controls (no addition of medicines, addition of only the l-OHP and addition of only a compatible agent, and specified in the below items (1) to (4)) and of the compatible administration of the compatible agent and the l-OHP are shown in FIG. 10.
# (1) No medicine was added (control).
# (2) Only the l-OHP was added at a second day.
# (3) A large amount of compatible agents were added at a first day ([…] of the cisplatin, 10 μg/ml of the 5-FU, 0.05 μg/ml of the adriamycin and 1 μg/ml of the etoposide, and for the comparison purpose, 0.05 μg/ml of the vincristin and 0.06 μg/ml of the vindecin). The adding amount of the irinotecano was fixed to 10 μg/ml, and the addition amount of the l-OHP was 5 μg/ml.
# (4) A small amount of compatible agents were added at a first day (0.5 μg/ml of the cisplatin, 5 μg/ml of the 5-FU, 0.01 μg/ml of the adriamycin and 0.5 μg/ml of the etoposide, and for the comparison purpose, 0.01 μg/ml of the vincristin and 0.01 μg/ml of the vindecin). The adding amount of the irinotecane was fixed to 10 μg/ml, and the addition amount of the l-OHP was 1 μg/ml.
# (5) The l-OHP and a large amount (the same as that of the above item (3) and so forth in the following items) of the compatible agents were simultaneously added at a first day.
# (6) The l-OHP and a small amount (the same as that of the above item (4) and so forth in the following items) of the compatible agents were simultaneously added at a first day.
# (7) The l-OHP was added at a first day and a large amount of the compatible agents were added at a second day.
# (8) The l-OHP was added at a first day and a small amount of the compatible agents were added at a second day.
# (9) The l-OHP was added at a first day and a large amount of the compatible agents were added at a third day.
# (10) The l-OHP was added at a first day and a small amount of the compatible agents were added at a third day.
# (11) The l-OHP was added at a first day and a large amount of the compatible agents were added at a fourth day.
# (12) The l-OHP was added at a first day and a small amount of the compatible agents were added at a fourth day.
# (13) A large amount of the compatible agents were added at a first day and the l-OHP was added at a second day.
# (14) A small amount of the compatible agents were added at a first day and the l-OHP was added at a second day.
# (15) A large amount of the compatible agents were added at a first day and the l-OHP was added at a third day.
# (16) A small amount of the compatible agents were added at a first day and the l-OHP was added at a third day.
# [1] = larger dosage of compatible agent (μg/ml: cisplatin 1, 5-FU 10, irinotecane 10, adriamycin 0.05, vincristin 0.05, vindecin 0.05, etoposide 1, bleomycin 10, mitoxantrone 0.1, mitomycine 1), l-OHP 1 μg/ml (5 μg/ml with irinotecane) added day 1
# [2] = larger dosage of compatible agent (μg/ml: cisplatin 1, 5-FU 10, irinotecane 10, adriamycin 0.05, vincristin 0.05, vindecin 0.05, etoposide 1, bleomycin 10, mitoxantrone 0.1, mitomycine 1), l-OHP 1 μg/ml (5 μg/ml with irinotecane)
# [3] = larger dosage of compatible agent added day 1 (μg/ml: cisplatin 1, 5-FU 10, irinotecane 10, adriamycin 0.05, vincristin 0.05, vindecin 0.05, etoposide 1, bleomycin 10, mitoxantrone 0.1, mitomycine 1), l-OHP 1 μg/ml (5 μg/ml with irinotecane)
# [4] = smaller dosage of compatible agent (μg/ml: cisplatin 0.5, 5-FU 5, irinotecane 10, adriamycin 0.01, vincristin 0.01, vindecin 0.01, etoposide 0.5, bleomycin 1, mitoxantrone 0.05, mitomycine 0.5), l-OHP 1 μg/ml added day 1
# [5] = smaller dosage of compatible agent (μg/ml: cisplatin 0.5, 5-FU 5, irinotecane 10, adriamycin 0.01, vincristin 0.01, vindecin 0.01, etoposide 0.5, bleomycin 1, mitoxantrone 0.05, mitomycine 0.5), l-OHP 1 μg/ml
# [6] = smaller dosage of compatible agent added day 1 (μg/ml: cisplatin 0.5, 5-FU 5, irinotecane 10, adriamycin 0.01, vincristin 0.01, vindecin 0.01, etoposide 0.5, bleomycin 1, mitoxantrone 0.05, mitomycine 0.5), l-OHP 1 μg/ml
Compound,"compatible administration effect with l-OHP, summary in words","Compatible Effects of l-OHP and Compatible Agent, Time Lag Administration, Addition Administration of Compatible Agent day 2 [1]","Compatible Effects of l-OHP and Compatible Agent, Time Lag Administration, Addition Administration of Compatible Agent day 3 [1]","Compatible Effects of l-OHP and Compatible Agent, Time Lag Administration, Addition Administration of Compatible Agent day 4 [1]","Compatible Effects of l-OHP and Compatible Agent, Simultaneous Administration [2]","Compatible Effects of l-OHP and Compatible Agent, Time Lag Administration, Addition Administration of l-OHP day 2 [3]","Compatible Effects of l-OHP and Compatible Agent, Time Lag Administration, Addition Administration of l-OHP day 3 [3]","Compatible Effects of l-OHP and Compatible Agent, Time Lag Administration, Addition Administration of l-OHP day 4 [3]","Compatible Effects of l-OHP and Compatible Agent, Time Lag Administration, Addition Administration of Compatible Agent day 2 [4]","Compatible Effects of l-OHP and Compatible Agent, Time Lag Administration, Addition Administration of Compatible Agent day 3 [4]","Compatible Effects of l-OHP and Compatible Agent, Time Lag Administration, Addition Administration of Compatible Agent day 4 [4]","Compatible Effects of l-OHP and Compatible Agent, Simultaneous Administration [5]","Compatible Effects of l-OHP and Compatible Agent, Time Lag Administration, Addition Administration of l-OHP day 2 [6]","Compatible Effects of l-OHP and Compatible Agent, Time Lag Administration, Addition Administration of l-OHP day 3 [6]","Compatible Effects of l-OHP and Compatible Agent, Time Lag Administration, Addition Administration of l-OHP day 4 [6]"
bleomycin,the additive effect or the synergistic effect regardless of the administration method and the dosage in almost all the cases; also recorded: synergistic effects can be obtained in most combinations when the l-OHP is added later at a third day and a fourth day,Δ (Δ: Below Additive Effect),◯ (◯: Additive Effect),• (•: Synergistic Effect),Δ (Δ: Below Additive Effect),Δ (Δ: Below Additive Effect),• (•: Synergistic Effect),• (•: Synergistic Effect),Δ (Δ: Below Additive Effect),• (•: Synergistic Effect),Δ (Δ: Below Additive Effect),• (•: Synergistic Effect),◯ (◯: Additive Effect),• (•: Synergistic Effect),◯ (◯: Additive Effect)
O=C1c2c(O)ccc(O)c2C(=O)c2c(NCCNCCO)ccc(NCCNCCO)c21 [mitoxantrone],the additive effect or the synergistic effect regardless of the administration method and the dosage in almost all the cases; also recorded: synergistic effects can be obtained in all the combinations when a small amount of the mitoxantrone is employed and the l-OHP is added later,• (•: Synergistic Effect),◯ (◯: Additive Effect),Δ (Δ: Below Additive Effect),◯ (◯: Additive Effect),◯ (◯: Additive Effect),◯ (◯: Additive Effect),◯ (◯: Additive Effect),◯ (◯: Additive Effect),• (•: Synergistic Effect),Δ (Δ: Below Additive Effect),• (•: Synergistic Effect),• (•: Synergistic Effect),• (•: Synergistic Effect),• (•: Synergistic Effect)
CCc1c2c(nc3ccc(OC(=O)N4CCC(N5CCCCC5)CC4)cc13)-c1cc3c(c(=O)n1C2)COC(=O)[C@]3(O)CC [irinotecane],the additive effect or the synergistic effect regardless of the administration method and the dosage in almost all the cases; also recorded: synergistic effects can be obtained in all the combinations when the l-OHP is added later,◯ (◯: Additive Effect),◯ (◯: Additive Effect),Δ (Δ: Below Additive Effect),◯ (◯: Additive Effect),◯ (◯: Additive Effect),• (•: Synergistic Effect),• (•: Synergistic Effect),◯ (◯: Additive Effect),◯ (◯: Additive Effect),◯ (◯: Additive Effect),◯ (◯: Additive Effect),• (•: Synergistic Effect),• (•: Synergistic Effect),• (•: Synergistic Effect)
"CO[C@@]12[C@H](COC(N)=O)C3=C(C(=O)C(C)=C(N)C3=O)N1C[C@@H]1N[C@@H]12 [mitomycine, mitomycin]",the additive effect or the synergistic effect regardless of the administration method and the dosage in almost all the cases; also recorded: synergistic effects can be obtained in most combinations when the l-OHP is administrated before to the mitomycin,◯ (◯: Additive Effect),• (•: Synergistic Effect),• (•: Synergistic Effect),◯ (◯: Additive Effect),◯ (◯: Additive Effect),Δ (Δ: Below Additive Effect),Δ (Δ: Below Additive Effect),◯ (◯: Additive Effect),• (•: Synergistic Effect),• (•: Synergistic Effect),◯ (◯: Additive Effect),◯ (◯: Additive Effect),Δ (Δ: Below Additive Effect),◯ (◯: Additive Effect)
